Reference: patent publication US20090162351A1, “Transdiscal administration of inhibitors of p38 MAP kinase” (DePuy Spine, Inc., priority 2007, published 2009)
Converted amounts (≈) assume the structure as drawn. Like-named read-outs stand apart in the source and are kept apart here.

Assays:
[1] = system: IL-1β-stimulated PGE2 synthesis in bovine chondrocyte pellets / ARC tissues; assay: Chondrocyte pellet / ARC culture model: Prostaglandin E2 assay; type: cell-based
Source text: (§1) Calf articular cartilage was obtained from the knee joints of eight to twelve month old animals and was processed within twenty-four hours after sacrifice. After removal of muscle and ligament, the cartilage was kept moist using phosphate buffer solution (PBS) to prevent tissue dehydration, and was aseptically peeled off from subchondral bone with a scalpel, and the cartilage pieces were further minced into smaller pieces (˜0.3-0.5×˜0.2-0.5 cm cubes). […] Chondrocytes were then enzymatically isolated from the tissue by incubation for overnight at 37° C. with gentle agitation in 0.2% collagenase in Dulbecco's modified eagle media (DMEM). After removal of tissue debris by filtration through cell strainer and the residual collagenase by 3× wash in PBS, cells were finally resuspended at a density of 2.5×10^6 cells/ml in chondrocyte medium. A 1 ml aliquot of the cell suspension was dispensed into either a 15 ml Falcon centrifuge tube or a 96 deep-well plate and centrifuged at 2000×g for five minutes. The chondrocyte pellets were incubated at 37° C. in a humidified atmosphere of 5% CO2 for two to three weeks with a medium change every other day.
(§2) As an alternative to using calf articular cartilage, a commercial Aliginate Recovered Chondrocytes (ARC) system was also used (Articular Engineering, LLC (Northbrook, Ill.)). Use of the commercial system cut down on labor and time in producing chondrocyte pellet. This system produced cartilaginous tissue in vitro using bovine chondrocytes. The first step consisted of culturing chondrocytes in alginate under conditions optimal for the formation of a cell-associated matrix (CM). The second step allowed these cells with their CM, after recovery, to rapidly form and become integrated into a solid mass of cartilage on a porous insert within two weeks.
(§3) Chondrocyte pellets were washed once with 1 ml of Chondrocyte Stimulation Medium and equilibrated in the same medium at room temperature for fifteen to thirty minutes. Compounds were dissolved in H2O, Ethanol or dimethyl sulfoxide (DMSO) (10^−2 M) according to suppliers' instructions and further diluted with Chondrocyte Stimulation Medium to the required concentrations. DMSO concentrations in the culture media should not exceed 1%; this concentration of DMSO has no effect on cartilage proteoglycan metabolism in response to cytokines.
(§4) The pellets were first treated with compounds at desired concentrations at 37° C. for one hour and then incubated for three to five days in the absence or presence of 10 ng/ml of IL-1β. At the end of the incubation, media and pellets were harvested and frozen for further analysis. Pellets were also fixed as needed in 4% (w/v) paraformaldehyde in PBS for histology analysis.
(§5) Prostaglandin E2 (PGE2) was measured with a STAT-Prostaglandin E2 EIA ELISA kit (Cayman Biochemicals). This assay is based on the competition between PGE2 from 50 μl samples and a PGE2-alkaline phosphatase conjugate for a limited amount of PGE2 monoclonal antibody in a reaction volume of 150 μl at room temperature for one hour. The antibody-PGE2 complex bound to a goat polyclonal anti-mouse IgG that had been previously attached to the well. After washing to remove any unbound reagents, para-nitrophenyl phosphate (pNPP) was added to the well. The product of this enzymatic reaction absorbs strongly at 412 nm. Because of the large range in response to IL-1β and other cytokines, PGE2 values were converted to log scale prior to doing t-tests.
To characterize the relative efficacies among different p38 MAP kinase inhibitors, dose-response curves were generated for both PGE2 and NO assays. […] After one hour of treatment, ARCs were stimulated with or without 7.5 ng/ml IL-1β and continued to incubate for five days before assay. The IL-1β-stimulated PGE2 synthesis or NO production was first calculated by subtraction of PGE2/NO levels in the absence of IL-1β from that in the presence of IL-1β. […]

[2] = system: IL-1β-stimulated NO production in bovine chondrocyte pellets / ARC tissues; assay: Chondrocyte pellet / ARC culture model: total nitrite and nitrate assay; type: cell-based; settings: at 5 μM
Source text: as §1, §2, §3, §4
(§6) Nitrate/Nitrite levels were measured using the Griess reaction (Green L. C. et al., “Analysis of Nitrate, Nitrite, and [15N]nitrate in Biological Fluids,” Anal. Biochem. 126: 131-138 (1982)) with a Nitrate/Nitrite Colorimetric Assay Kit (Cayman Chemicals), the contents of which are incorporated herein by reference. The assay involved a simple two-step process. The first step involved conversion of nitrate in 50 μl of culture medium to nitrite utilizing nitrate reductase in a reaction volume of 100 μl at room temperature for two hours. The second step involved the addition of 50 μl of both Griess Reagent 1 and 2, which converted nitrite into a deep purple azo compound in ten minutes. Photometric measurement of the absorbance at 540 or 550 nm due to this azo chromophore accurately determined nitrite concentration. This assay kit cannot be used for RPMI (Roswell Park Memorial Institute) derived tissue culture medium due to interference with the colorimetric reaction.
To characterize the relative efficacies among different p38 MAP kinase inhibitors, dose-response curves were generated for both PGE2 and NO assays. […] After one hour of treatment, ARCs were stimulated with or without 7.5 ng/ml IL-1β and continued to incubate for five days before assay. […]

[3] = system: bovine chondrocyte pellets / ARC tissues stimulated with IL-1β; assay: Chondrocyte pellet / ARC culture model: GAG degradation assay; type: cell-based; settings: Bos taurus, Chondrocyte; at 5 μM; read-out: GAG Release (inhibition), Pellet Assay
Source text: A chondrocyte pellet culture model was developed for in vitro high throughput screening of therapeutic compounds for inhibition of IL-1β-stimulated matrix degradation. The chondrocyte pellet culture model can be used to detect various potential therapeutic compounds effective in blocking different processes caused by IL-1β stimulation. For example, IL-1β stimulation results in increased glycosaminoglycan (GAG) degradation, prostaglandin E2 (PGE2) synthesis and total nitrite/nitrate production. Compounds with different mechanisms of action may inhibit the increase of one or two or all three of these parameters. For this reason, screening by, for example, measuring only GAG release would be limited to detection of a specific class of inhibitors and may not detect compounds with diversified mechanisms of function which may be involved in inhibition of the IL-1 stimulated inflammatory process. The development of the chondrocyte pellet culture assay system in a 96-well plate made possible large-scale screening of potential therapeutic compounds with different mechanisms of action.
as §1, §2
This tissue is rich in cells surrounded by a cell-associated matrix that is degraded rapidly when the cells are exposed to IL-1. ARC tissues in 3 mm punches at delivery were first dispensed into a 96 deep-well plate, one punch per well, for compound treatment. The subsequent procedures were the same as those used for the chondrocyte pellets.
as §3
The pellets were first treated with compounds at desired concentrations at 37° C. for one hour and then incubated for three to five days in the absence or presence of 10 ng/ml of IL-1β. […]

Water solubility = type: physicochemical
chondrocytes = type: cell-based
Procedure: The LDH activity was determined calorimetrically in an enzymatic test based on the conversion of lactic acid to pyruvate in the presence of chromagenic substrate tetrazolium salt INT that was reduced to formazan.

human cancer cell lines = assay: Cell proliferation in culture; type: cell-based
[4] = system: human tumor xenograft models; assay: Human tumor xenograft models; type: in vivo; settings: single agent
[5] = system: bovine chondrocyte pellets / ARC tissues stimulated with IL-1β; assay: Chondrocyte pellet / ARC culture model: GAG degradation assay; type: cell-based; settings: at 5 μM, 7.5 ng/ml IL-1, five days
CDK1 = CDK1 (Homo sapiens, UniProt P06493); assay: CDK1 inhibition; type: biochemical
[6] = system: cytokine-stimulated NO production in human ARC tissues; assay: Human ARC tissues: NO production; type: cell-based
Procedure: as §6
(§7) ® infliximab is a monoclonal antibody against human TNFα. To test whether […]® could modulate cytokine-stimulated responses in chondrocytes, human chondrocyte pellets were first tested for an optimal concentration for cytokine stimulation. Human ARC (i.e., ARCs generated using human chondrocytes) tissues were treated with various concentrations of either TNF or IL-1 for four and five days. The culture media was collected for measurement of GAG content as described above. Other assays were performed as described above. Cytokine dosage at 5 ng/ml and treatment for five days gave a reasonable treatment window, yet was not too challenging for compound efficacy (FIG. 4).
(§8) Human ARC tissues were then treated with various concentrations of […]® in the presence or absence of either 10 ng/ml of TNFα or 5 ng/ml of IL-1β for four or five days.
(§9) The efficacy of a monoclonal antibody (mAb) against human IL-6 in inhibition of proteoglycan degradation, NO production and PGE2 synthesis on human ARC tissues stimulated with IL-6 was also tested. […]

[7] = system: cytokine-stimulated PGE2 synthesis in human ARC tissues; assay: Human ARC tissues: PGE2 synthesis; type: cell-based; settings: for PGE2 Inhibition, Pellet Assay: TNFα stimulated responses
Procedure: as §5, §7, §8
The efficacy of a monoclonal antibody (mAb) against human IL-6 in inhibition of proteoglycan degradation, NO production and PGE2 synthesis on human ARC tissues stimulated with IL-6 was also tested. Human ARC tissue were treated with 12.5, 25 and 250 ng/ml of IL-6 mAb diluted into chondrocyte stimulation medium. After one hour of treatment at 37° C., ARCs were stimulated with or without 25 ng/ml IL-6, 250 ng/ml IL-6 soluble receptor (IL-6SR) or IL-6 (25 ng/ml)+L-6SR (250 ng/ml) and incubated for five days before the culture media were harvested for assays.

[8] = in vivo; cited from earlier work
[9] = system: human ARC tissues (human chondrocytes) stimulated with TNFα, IL-1β or IL-6 + IL-6SR; assay: Human ARC tissues: GAG release; type: cell-based
Procedure: Glycosaminoglycan (GAG) levels in the culture media were determined by measuring the amount of polyanionic material reacting with 1,9-dimethylmethylene blue (DME) as detected by absorbance at 525 nm, using shark chondroitin sulfate as a standard. The DME blue dye-binding solution was prepared by dissolving 16 mg of DME blue in a solution containing 0.304% glycine, 0.23% sodium chloride (NaCl), 9.5 mM hydrochloric acid (HCl), pH=3.0 with absorbance at 525 equal to 0.31. Proteoglycans and proteoglycan metabolites in chondrocyte pellet were released by digesting the pellet with 125 μg/ml of papain in 0.1 M PBS, pH 6.0, 5 mM cysteine, 5 mM ethylene-diamine-tetra-acetic acid disodium salt (Na2EDTA) at 50° C. for overnight. Results are reported as either micrograms of GAG per milliliter or percent of total GAG released into culture medium.
as §7, §8
as §9, with “tested. Human ARC tissue were treated with 12.5, 25 and 250 ng/ml of IL-6 mAb diluted into chondrocyte stimulation medium.” for “tested.”

[10] = system: annulus fibrosus and nucleus pulposus cells from bovine caudal discs treated with IL-1β; assay: 3D in vitro disc cell model: GAG (DMMB); type: cell-based; settings: 10 ng/ml IL-1β; inhibitor 1 μM, rhGDF-5 200 ng/ml
Source text: (§10) Three-dimensional in vitro annulus fibrosis (AF) and nucleus pulposus (NP) models were established to investigate proteoglycan modulation and changes in gene expression in response to inflammatory cytokines such as interleukin-1 (e.g., IL-1β) and potential therapeutic agents such as growth and differentiation factor (GDF-5), and p38 MAP kinase inhibitors. AF and NP cells from bovine caudal discs were isolated by enzymatic digestion and seeded (2×10^6 cells/cm^2) onto Millipore CM filters coated with Collagen Type II and cultured in DMEM/20% heat-inactivated FBS, 100 ug/ml ascorbic acid and 5 ng/ml TGFβ1. […] Results were evaluated by histology (Tol. Blue staining was used to observe matrix production). Dimethylmethylene blue (DMMB) was used to detect sulphated glycosaminoglycans in a GAG/DNA assay. Taqman analysis was performed on aggrecans (AGG), collagen type 1 (col-1), collagen type 2 (col-2), and MMP 3, MMP 9 and MMP 13. In FIGS. 19A-C and 20A-C, annulus fibrosus and nucleus pulposus cells from bovine caudal discs were isolated by enzymatic digestion and seeded (2×10^6 cells/cm2) onto Millipore CM filters coated with Collagen Type II and cultured in DMEM/20% heat-inactivated FBS/100 ug/ml ascorbic acid and 5 ng/ml TGF-β1.

[11] = system: aggrecan and collagen type 2 mRNA in bovine AF and NP cells; assay: 3D in vitro disc cell model: Taqman gene expression; type: cell-based; settings: 10 ng/ml IL-1β; inhibitor 1 μM, rhGDF-5 200 ng/ml
Source text: as §10

[12] = 10 ng/ml TNFα, four or five days
[13] = at 1 ng/ml, TNFα stimulated responses

CDK1, sequence (P06493 whole entry, species assumed): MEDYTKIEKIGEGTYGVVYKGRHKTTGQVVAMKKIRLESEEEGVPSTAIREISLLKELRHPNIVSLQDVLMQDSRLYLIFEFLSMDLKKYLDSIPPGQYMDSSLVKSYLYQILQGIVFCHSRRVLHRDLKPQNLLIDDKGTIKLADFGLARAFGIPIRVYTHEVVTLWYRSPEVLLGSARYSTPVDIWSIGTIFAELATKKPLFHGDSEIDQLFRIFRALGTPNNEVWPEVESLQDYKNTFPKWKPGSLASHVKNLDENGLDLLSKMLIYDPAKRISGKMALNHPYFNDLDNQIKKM
CDK1, sequence (P14635 whole entry partner, species assumed): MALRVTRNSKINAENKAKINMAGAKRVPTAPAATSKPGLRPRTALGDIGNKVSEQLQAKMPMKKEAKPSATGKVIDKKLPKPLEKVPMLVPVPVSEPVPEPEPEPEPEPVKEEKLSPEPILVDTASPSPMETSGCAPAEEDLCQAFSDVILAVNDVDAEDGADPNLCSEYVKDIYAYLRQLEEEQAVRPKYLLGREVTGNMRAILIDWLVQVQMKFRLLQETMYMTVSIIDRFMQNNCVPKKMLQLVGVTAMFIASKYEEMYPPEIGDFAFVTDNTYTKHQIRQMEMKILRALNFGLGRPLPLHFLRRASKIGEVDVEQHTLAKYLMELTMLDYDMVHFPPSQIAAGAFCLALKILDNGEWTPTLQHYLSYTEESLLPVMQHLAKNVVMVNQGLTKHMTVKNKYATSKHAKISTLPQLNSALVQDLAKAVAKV

## Nc1nc(Nc2ccc(S(N)(=O)=O)cc2)nn1C(=O)c1c(F)cccc1F [JNJ 7706621, 4-[5-Amino-1-(2,6-difluoro-benzoyl)-1H-[1,2,4]triazol-3-ylamino]-benzenesulfonamide]
[1]; Table 3B
  PGE2 Inhibition, Pellet Assay (in words): No effect
[1]; at 5 μM, ARC tissues, 7.5 ng/ml IL-1, five days
  PGE2 synthesis (in words): little effect
[2]; Bos taurus, Chondrocyte
  inhibition at 5 µM: 100%
[2]; ARC tissues, 7.5 ng/ml IL-1, five days
  NO production (in words): completely blocked
[3]
  inhibition at 5 µM: 100%
Water solubility; at pH 7.4
  solubility: 17 µg/mL (≈ 43.1 µM)
Water solubility; water, simulated gastric fluid, at pH 2, read-out: solubility
  solubility: 6 µg/mL (≈ 15.2 µM)
chondrocytes
  cytotoxicity to chondrocytes, LDH (in words): little toxicity
Human cancer cell lines
  cell cycle effects (in words): induced G2M arrest, endoreduplication and apoptosis
Human cancer cell lines; Homo sapiens, in 9 cell lines, read-out: inhibits cell proliferation in culture, IC50
  IC50: 337 ± 123 nM
[4]
  antitumor activity (in words): single agent antitumor activity
[5]
  GAG release (in words): completely blocked
CDK1
  IC50: 9 nM

## REMICADE®: monoclonal antibody against human TNFα
[6]; 5 ng/ml IL-1β
  IL-1β stimulated responses: NO production (in words): little effect
[6]; [12]
  TNFα-induced NO production (in words): strongly inhibited
[6]; [13]
  NO Inhibition, Pellet Assay: 100% at
[7]; 5 ng/ml IL-1β
  IL-1β stimulated responses: PGE2 synthesis (in words): little effect
[7]; [12]
  TNFα-induced PGE2 synthesis (in words): strongly inhibited
[7]; at 1 ng/ml
  PGE2 Inhibition, Pellet Assay: 50% at 1 ng/ml
[7]; at 10 ng/ml
  PGE2 Inhibition, Pellet Assay: 100% at
[8]
  half-life when administered systemically: about 1 week
[9]; 5 ng/ml IL-1β
  IL-1β stimulated responses: GAG release (in words): little effect
[9]; [12]
  TNFα-induced GAG release (in words): strongly inhibited
[9]; [13]
  GAG Release (inhibition), Pellet Assay: 100% at 1 ng/ml

B1: rhGDF-5: growth and differentiation factor, member of the BMP family and TGF-beta superfamily (protein, UniProt P43026 382-501, looked up)
Growth/differentiation factor …: APLATRQGKRPSKNLKARCSRKALHVNFKDMGWDDWIIAPLEYEAFHCEGLCEFPLRSHLEPTNHAVIQTLMNSMDPESTPPTCCVPTRLSPISILFIDSANNVVYKQYEDMVVESCGCR
[10]
  amount of GAG in the tissue (in words): restored
[11]
  gene expression of Agg and Col 2 (in words): restored
